Test results reported in US20190183939A1, “CELL THERAPY USING MIDBRAIN-TYPE NEURAL STEM CELLS TREATED WITH VITAMIN C” (INDUSTRY-UNIVERSITY COOPERATION FOUNDATION HANYANG …, priority 2017, published 2019).

Tests used:
[1] = tested on: Nurr1 and TH promoters; experiment: DIP-qPCR and ChIP-qPCR on Nurr1 and TH promoters; type: cell-based, rat
Source text: Foxa2 and Nurr1 binding sites were identified using the Jaspar database (http://jaspar.genereg.net/) using an 80% score threshold. Predicted Foxa2 and Nurr1 binding sites were coupled with phylogenetic footprinting to eliminate spurious predictions with specified position weight matrix (PWM) settings, as described in the following reference. [Sandelin, A., and Wasserman, W. W. (2004). Constrained binding site diversity within families of transcription factors enhances pattern discovery bioinformatics. Journal of molecular biology 338, 207-215] (Table 2). ChIP and DIP assays were carried out as described in the following reference. [Prolonged membrane depolarization enhances midbrain dopamine neuron differentiation via epigenetic histone modifications. Stem Cells 29, 1861-1873]. Briefly, chromatin or genomic DNA was sheared to an average of 200-500 bp in length using a sonication Bioruptor (BMS, Seoul, Korea) and immunoprecipitated using the antibodies listed in Table 1. Immunoprecipitated DNA fragments were collected using magnetic beads (Invitrogen), purified, and subjected to real-time PCR using the primers listed in Table 3. The comparative cycle threshold method was used to quantify the results. Data were normalized to the input DNA.

[2] = tested on: TH+ DA neurons differentiated from VM-NSCs; experiment: Morphologic and functional maturation of DA neurons; type: cell-based, rat; details: VC during expansion
Procedure: (§1) To estimate morphological maturation, total fiber lengths emanating from TH+DA neuronal cells were measured. The pre-synaptic activity of DA neurons was determined by measuring the levels of DA neurotransmitter released in the differentiated VM-NSC cultures. Media incubated for 2 days (differentiation day 13-15) were collected and used in the DA level determinations using an ELISA kit (BA E-5300, LDN). In addition, DA release evoked by membrane depolarization was estimated by incubating the cultures (at differentiation day 15) in fresh N2 media in the presence or absence of 56 mM KCl for 30 min. The evoked DA release was calculated by subtracting the DA release without KCl from the DA level with KCl.

[3] = tested on: cultures differentiated from VM-NSCs; experiment: Differentiated cell survival/death, DNA damage and resistance against toxins; type: cell-based, rat
Procedure: (§2) The cell growth profile during NSC expansion with several cell passages was generated by counting the number of viable cells at the end of each passage. Cell expansion of each NSC passage was further estimated by the population doubling level (PDL, the level at which the number of cells is doubled), which was determined by log(N/NO)/log 2 (where N is the number of cells at the end of each passage; NO is the number of cells plated initially (1×10^5 cells/cm^2)). DA neuronal cell survival in the absence or presence of toxic insults (500-1000 uM of H2O2 or 6-OHDA) was determined by counting viable TH^+ cells after staining. General cell death and DNA damage were estimated by ethidium heterodimer 1 (EthD1) (Molecular Probes) and γH2AX staining, respectively.

[4] = tested on: human NSCs derived from hESCs (H9); experiment: VC treatment in human NSC cultures derived from hESCs (H9); type: cell-based
Procedure: NSCs were cultured from rat embryo VMs (Sprague Dawley) at embryonic day 12 (E12) on 6-cm dishes or 24-well plates pre-coated with 15 μg/ml poly-L-ornithine (PLO; Sigma)/1 ug/ml fibronectin (FN; Sigma, St. Louis, Mo.) in serum-free N2 medium. NSCs were induced to proliferate by the mitogenic action of basic fibroblast growth factor (bFGF, 20 ng/ml, R&D Systems, Minneapolis, Minn.). The proliferating VM-NSCs cultured in 6-cm dishes were passaged at every 4th day in mitogen-supplemented medium with or without Vitamin C (VC; Sigma; 200 μM), glutathione reduced form (GSH; Sigma; 200 μM), vitamin E (alpha-tocopherol; Sigma; 200 μM), or N-acetylcysteine (NAc; Sigma; 100 μM). The expanded NSCs at the last day of each passage were induced to differentiate by withdrawing the mitogen and antioxidants from the media (for 2-16 days). Human NSC cultures were derived by in vitro differentiation of hESCs (H9) and cultured as described in the following reference. [Rhee, Y. H., Ko, J. Y., Chang, M. Y., Yi, S. H., Kim, D., Kim, C. […] The human NSCs were expanded in ITS media supplemented with bFGF (20 ng/ml) in the presence or absence of VC for two NSC passages. Differentiation of the passaged human NSCs was induced by withdrawal of bFGF and VC in ITS supplemented with brain-derived neurotrophic factor (20 ng/ml; R&D Systems), glial cell line derived neurotrophic factor (20 ng/ml; R&D Systems), and dibutyryl cAMP (0.5 mmol/1; Sigma). Cultures were maintained at 37° C. in humidified 5% CO2 incubators.
as §2
as §1, with “In addition, DA release evoked by membrane depolarization was estimated by incubating the cultures (at differentiation day 15) in fresh N2 media in the presence or absence of 56 mM KCl for 30 min.” left out

SMILES: O=C1O[C@H]([C@@H](O)CO)C(O)=C1O [VC, L-ascorbic acid]
- Nurr1 protein abundance at TH promoter ([1]; ChIP-qPCR, D6): significantly greater
- Foxa2 recruitment to Nurr1 promoter regions ([1]; D2, culture pre-treated with VC): more abundantly recruited
- 5hmC/5mC and H3K27m3/H3K9m3 at Nurr1 promoter regions ([1]; from D0, compared to untreated controls): increased 5hmC levels with 5mC decreases and the decrease of H3K27m3/H3K9m3
- total fiber lengths per TH+ DA neuron ([2]; D15): 164 um
- presynaptic DA neuronal function measured by DA release ([2]; medium 48 hr (D13-15) and KCl evoked 30 min): greater
- synapsin+ puncta in TH+ DA neuron neurites ([2]; vs untreated control): more abundantly localized
- DA neurons died after exposure to H2O2 or 6-OHDA ([3]; 500 and 1000 μM for 8 hours at D8, VC during expansion): remarkably lower proportions
- γH2AX foci, % cells with >3 foci ([3]; D12 as printed, VC during expansion): 24.3%
- cell death (EthD-1+ dead cell counting) ([3]; differentiation D8, VC during NSC expansion and passaging): considerably reduced
- TH+ DA neuronal yields ([4]; VC-treated human NSCs, D6): significantly enhanced
- neurite branching of TH+ cells ([4]; compared to untreated control cultures, D15): more extensive neurite branching
- differentiating/differentiated cell survival ([4]; hESC-NSC cultures, VC during proliferation, D6): greatly promoted
- TH mRNA expression ([4]; qRT-PCR): increase
